Assay results as given in patent US10471139B2, “Toll-like receptor agonists” (The University of Kansas, priority 2013, dated 2019).

target: T1, human TLR7 (Homo sapiens, UniProt Q9NYK1); assay: Human TLR7 reporter gene assay (NF-κB induction), HEK-Blue-7 cells; format: cell-based; conditions: human TLR7-specific reporter gene assay; Inactive = no activity up to 500 μg/mL
T1 construct: expressed in transfected cells; host or cells: HEK293 (HEK-Blue-7)
T1 sequence (Q9NYK1 27-1049): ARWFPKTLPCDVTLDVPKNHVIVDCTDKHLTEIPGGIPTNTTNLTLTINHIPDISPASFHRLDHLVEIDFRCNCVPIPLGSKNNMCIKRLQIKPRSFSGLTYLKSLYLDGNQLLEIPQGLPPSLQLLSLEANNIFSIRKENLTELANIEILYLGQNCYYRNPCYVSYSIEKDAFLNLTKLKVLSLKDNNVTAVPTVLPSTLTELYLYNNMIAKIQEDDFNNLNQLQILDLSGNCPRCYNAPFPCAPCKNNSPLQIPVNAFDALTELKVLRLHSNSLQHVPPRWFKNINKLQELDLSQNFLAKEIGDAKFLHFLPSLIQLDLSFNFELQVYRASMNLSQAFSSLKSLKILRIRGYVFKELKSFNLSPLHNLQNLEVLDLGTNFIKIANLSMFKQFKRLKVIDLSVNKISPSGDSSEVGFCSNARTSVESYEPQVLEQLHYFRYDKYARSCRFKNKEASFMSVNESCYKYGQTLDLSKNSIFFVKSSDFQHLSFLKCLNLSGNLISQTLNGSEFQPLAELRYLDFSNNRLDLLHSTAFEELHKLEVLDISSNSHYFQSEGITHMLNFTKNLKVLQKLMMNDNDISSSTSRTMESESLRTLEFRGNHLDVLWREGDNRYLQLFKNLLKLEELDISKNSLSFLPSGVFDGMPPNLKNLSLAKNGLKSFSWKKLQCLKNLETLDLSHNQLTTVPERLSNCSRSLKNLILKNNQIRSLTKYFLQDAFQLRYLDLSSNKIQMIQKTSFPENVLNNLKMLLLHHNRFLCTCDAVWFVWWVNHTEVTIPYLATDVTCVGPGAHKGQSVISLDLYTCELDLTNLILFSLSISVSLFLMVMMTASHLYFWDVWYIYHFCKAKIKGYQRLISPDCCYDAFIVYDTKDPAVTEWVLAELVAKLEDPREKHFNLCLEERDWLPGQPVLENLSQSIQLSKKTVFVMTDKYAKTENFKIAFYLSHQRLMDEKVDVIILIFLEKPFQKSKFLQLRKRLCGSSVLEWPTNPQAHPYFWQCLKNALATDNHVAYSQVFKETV
Text: (§1) Human TLR-7/-8 Reporter Gene Assays (NF-κB Induction).
(§2) The induction of NF-κB was quantified using HEK-Blue-7 (hTLR7-specific) and HEK-Blue-8 (hTLR8-specific) cells. HEK293 cells stably co-transfected with human TLR7 or human TLR8, MD2, and secreted alkaline phosphatase (sAP), were maintained in HEK-Blue™ Selection medium containing zeocin and normocin. Stable expression of secreted alkaline phosphatase (sAP) under control of NF-κB/AP-1 promoters is inducible by appropriate TLR agonists, and extracellular sAP in the supernatant is proportional to NF-κB induction.
(§3) HEK293 cells stably co-transfected with the appropriate hTLR (or NOD) and secreted alkaline phosphatase (sAP) were maintained in HEK-Blue™ Selection medium. Stable expression of secreted alkaline phosphatase (sAP) under control of NF-κB/AP-1 promoters is inducible by appropriate TLR/NOD agonists, and extracellular sAP in the supernatant is proportional to NF-κB induction.

Compound | hTLR7-agonistic Activity (EC50)
CCCCc1nc2c(N)nc(-c3ccc(C(N)=O)cc3)cc2n1Cc1ccccc1 [Compound 23c, 4-(4-Amino-1-benzyl-2-butyl-1H-imidazo[4,5-c]pyridin-6-yl)benzamide] | Inactive
CCCCc1nc2c(NCc3ccccc3)nccc2n1Cc1ccccc1 [Compound 11b, N,1-Dibenzyl-2-butyl-1H-imidazo[4,5-c]pyridin-4-amine] | Inactive
CCCCc1nc2c(N)nc(-c3ccoc3)cc2n1Cc1ccccc1 [Compound 23e, 1-Benzyl-2-butyl-6-(furan-3-yl)-1H-imidazo[4,5-c]pyridin-4-amine] | Inactive

same assay, conditions: human TLR7-specific reporter gene assay; Inactive = no activity up to 500 μg/mL; read-out: hTLR7-agonistic Activity (EC50)

Compound | EC50
CCCCc1nc2c(N)nc(Cc3ccc(C)cc3)cc2n1Cc1ccccc1 [Compound 23h, 1-Benzyl-2-butyl-6-(4-methylbenzyl)-1H-imidazo[4,5-c]pyridin-4-amine] | 1.8 µM
CCCCNc1cc2c(nc(CCCC)n2Cc2ccccc2)c(N)n1 [Compound 19b, 1-Benzyl-N^6,2-dibutyl-1H-imidazo[4,5-c]pyridine-4,6-diamine] | 0.34 µM
CCCCc1cc2c(nc(CCCC)n2Cc2ccccc2)c(N)n1 [Compound 23a, 1-Benzyl-2,6-dibutyl-1H-imidazo[4,5-c]pyridin-4-amine] | 0.28 µM

target: T2, human TLR8 (Homo sapiens, UniProt Q9NR97); assay: Human TLR8 reporter gene assay (NF-κB induction), HEK-Blue-8 cells; format: cell-based; conditions: human TLR 8-specific reporter gene assays
T2 construct: expressed in transfected cells; host or cells: HEK293 (HEK-Blue-8)
T2 sequence (Q9NR97 27-1041): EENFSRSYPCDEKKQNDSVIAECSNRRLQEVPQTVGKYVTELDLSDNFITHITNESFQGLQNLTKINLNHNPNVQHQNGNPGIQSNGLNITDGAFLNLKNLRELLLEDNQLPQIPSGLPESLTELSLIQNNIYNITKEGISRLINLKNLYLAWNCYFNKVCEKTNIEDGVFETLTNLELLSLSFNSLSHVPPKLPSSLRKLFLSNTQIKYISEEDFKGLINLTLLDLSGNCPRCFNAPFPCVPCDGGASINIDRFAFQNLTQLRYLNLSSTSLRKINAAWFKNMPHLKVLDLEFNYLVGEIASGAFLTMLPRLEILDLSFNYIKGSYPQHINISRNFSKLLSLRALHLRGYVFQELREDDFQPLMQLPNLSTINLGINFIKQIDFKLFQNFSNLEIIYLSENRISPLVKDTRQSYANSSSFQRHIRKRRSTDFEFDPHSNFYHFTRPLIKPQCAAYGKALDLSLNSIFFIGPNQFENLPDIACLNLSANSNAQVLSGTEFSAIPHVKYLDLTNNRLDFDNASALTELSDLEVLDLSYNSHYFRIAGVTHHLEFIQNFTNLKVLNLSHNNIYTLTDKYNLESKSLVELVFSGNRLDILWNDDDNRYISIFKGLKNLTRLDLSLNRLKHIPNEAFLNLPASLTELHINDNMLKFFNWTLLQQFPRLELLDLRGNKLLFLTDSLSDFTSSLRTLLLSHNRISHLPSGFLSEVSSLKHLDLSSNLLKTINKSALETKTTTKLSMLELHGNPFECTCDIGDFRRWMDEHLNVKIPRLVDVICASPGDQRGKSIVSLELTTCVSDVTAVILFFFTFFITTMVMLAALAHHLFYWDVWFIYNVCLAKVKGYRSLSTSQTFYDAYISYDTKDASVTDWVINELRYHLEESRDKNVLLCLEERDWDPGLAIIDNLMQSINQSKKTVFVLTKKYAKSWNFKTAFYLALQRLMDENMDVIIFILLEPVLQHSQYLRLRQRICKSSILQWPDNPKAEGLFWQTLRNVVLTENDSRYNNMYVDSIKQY
Text: as §1, §2, §3

Compound | hTLR8 Agonistic Activity (EC50)
CCCCCn1c(NC(C)=O)nc2ccccc21 [Compound A10, N-(1-pentyl-1H-benzo[d]imidazol-2-yl)acetamide] | Inactive
CCCCCn1c(N)nc2c(Cc3ccccc3)cccc21 [Compound A31m, 4-benzyl-1-pentyl-1H-benzo[d]imidazol-2-amine] | Inactive
CCCCCn1c(N)nc2c(OCc3ccccc3)cccc21 [Compound A35, 4-Benzyloxy-1-pentyl-1H-benzoimidazol-2-ylamine] | Inactive
CCCCCn1c(N)nc2ncccc21 [Compound A27a, 1-Pentyl-1H-imidazo[4,5-b]pyridin-2-amine] | Inactive
CCCCCn1c(N)nc2c(Cl)cccc21 [Compound A31g, 4-Chloro-1-pentyl-1H-benzo[d]imidazol-2-amine] | Inactive
CCCCCn1c(N)nc2cnccc21 [Compound A27b, 1-Pentyl-1H-imidazo[4,5-c]pyridin-2-amine] | Inactive
CCCCCn1c(N)nc2c(C(F)(F)F)cccc21 [Compound A31h, 1-Pentyl-4-(trifluoromethyl)-1H-benzo[d]imidazol-2-amine] | Inactive
CCCCCn1c(N)nc2c(-c3ccccc3)cccc21 [Compound A31l, 1-pentyl-4-phenyl-1H-benzo[d]imidazol-2-amine] | Inactive
CCCCCn1c(N)nc2ccc3ccccc3c21 [Compound A18, 1-pentyl-1H-naphtho[1,2-d]imidazol-2-amine] | Inactive
CCCCCn1c(N)nc2c([N+](=O)[O-])cccc21 [Compound A39, 4-Nitro-1-pentyl-1H-benzoimidazol-2-ylamine] | Inactive
CCCCCn1c(N)nc2cccnc21 [Compound A27d, 3-Pentyl-3H-imidazo[4,5-b]pyridin-2-amine] | Inactive
CCCCCn1c(N)nc2c(Br)cccc21 [Compound A31i, 4-Bromo-1-pentyl-1H-benzo[d]imidazol-2-amine] | Inactive
CCCCOC(=O)n1c(N)nc2ccccc21 [Compound A9, butyl 2-amino-1H-benzo[d]imidazole-1-carboxylate] | Inactive
Nc1nc2ccccc2n1Cc1ccccc1 [Compound A8d, 1-Benzyl-1H-benzo[d]imidazol-2-amine] | Inactive
CCCCCn1c(N)nc2c(F)cccc21 [Compound A31f, 4-Fluoro-1-pentyl-1H-benzo[d]imidazol-2-amine] | Inactive
NCc1cccc(Cn2c(N)nc3ccccc32)c1 [Compound A8f, 1-(3-(aminomethyl)benzyl)-1H-benzo[d]imidazol-2-amine] | Inactive
CCCCCn1c(N)nc2ccncc21 [Compound A27c, 3-Pentyl-3H-imidazo[4,5-c]pyridin-2-amine] | Inactive
CCCCC1(O)C(N)=Nc2ccccc21 (centres unmarked) [Compound A5, 2-amino-3-butyl-3H-indol-3-ol] | Inactive
CCCCCn1c(N)nc2cc3ccccc3cc21 [Compound A13, 1-Pentyl-1H-naphtho[2,3-d]imidazol-2-amine] | Inactive

same assay, conditions: human TLR 8-specific reporter gene assays; read-out: hTLR8 Agonistic Activity (EC50)

Compound | EC50
CCCCCn1c(N)nc2c(O)cccc21 [Compound A36, 2-Amino-1-pentyl-1H-benzoimidazol-4-ol] | 5.01 µM
CCCCCn1c(N)nc2cccc(C)c21 [Compound A31d, 7-Methyl-1-pentyl-1H-benzo[d]imidazol-2-amine] | 6.61 µM
CCCCCCn1c(N)nc2ccccc21 [Compound A8c, 1-Hexyl-1H-benzo[d]imidazol-2-amine] | 3.96 µM
CCCCCn1c(N)nc2c(N(C)C)cccc21 [Compound A31k, N^4,N^4-demethyl-1-pentyl-1H-benzo[d]imidazole-2,4-diamine] | 7.12 µM
CCCCCn1c(N)nc2ccc(C)cc21 [Compound A31c, 6-Methyl-1-pentyl-1H-benzo[d]imidazol-2-amine] | 7.21 µM
CCCCCn1c(N)nc2c(N)cccc21 [Compound A40, 1-Pentyl-1H-benzoimidazole-2,4-diamine] | 6.6 µM
CCCCn1c(N)nc2ccccc21 [Compound A8a, 1-butyl-1H-benz[d]imidazol-2-amine] | 7.3 µM
CCCCCn1c(N)nc2cc(C)ccc21 [Compound A31b, 5-Methyl-1-pentyl-1H-benzo[d]imidazol-2-amine] | 4.57 µM
CCCCCn1c(N)nc2c(CC)cccc21 [Compound A31j, 4-Ethyl-1-pentyl-1H-benzo[d]imidazol-2-amine] | 1.65 µM

same assay, conditions: primary screens

Compound | TLR8-agonistic activity EC50
CCCCCn1c(NC(C)=O)nc2ccccc21 [Compound A10, N-(1-pentyl-1H-benzo[d]imidazol-2-yl)acetamide] | completely abrogated activity
CCCCCn1c(N)nc2c(Cc3ccccc3)cccc21 [Compound A31m, 4-benzyl-1-pentyl-1H-benzo[d]imidazol-2-amine] | abrogated activity
CCCCCn1c(N)nc2c(OCc3ccccc3)cccc21 [Compound A35, 4-Benzyloxy-1-pentyl-1H-benzoimidazol-2-ylamine] | abrogated activity
CCCCCn1c(N)nc2c(-c3ccccc3)cccc21 [Compound A31l, 1-pentyl-4-phenyl-1H-benzo[d]imidazol-2-amine] | abrogated activity
CCCCCn1c(N)nc2c([N+](=O)[O-])cccc21 [Compound A39, 4-Nitro-1-pentyl-1H-benzoimidazol-2-ylamine] | inactive
CCCCOC(=O)n1c(N)nc2ccccc21 [Compound A9, butyl 2-amino-1H-benzo[d]imidazole-1-carboxylate] | completely abrogated activity
CCCCC1(O)C(N)=Nc2ccccc21 (centres unmarked) [Compound A5, 2-amino-3-butyl-3H-indol-3-ol] | inactive

same assay, conditions: primary screens; read-out: TLR8-agonistic activity EC50

Compound | EC50
CCCCCn1c(N)nc2c3ccccc3ccc21 [Compound A23, 3-Pentyl-3H-naphtho[1,2-d]imidazol-2-amine] | 3.16 µM
CCCCCn1c(N)nc2c(OC)cccc21 [Compound A31e, 4-Methoxy-1-pentyl-1H-benzo[d]imidazol-2-amine] | 3.74 µM
CCCCCn1c(N)nc2ccccc21 [Compound A8b, 1-Pentyl-1H-benzo[d]imidazol-2-amine] | 3.23 µM
